Columns and labels:
[1] = test system: N87 (gastric cancer) cells; test: In vitro cell assay (MTS cell viability), N87; assay type: cell-based; details: 96 h, free compounds (natural products and synthetic analogs); cell viability 96 hours after treatment
Protocol: (§1) Target expressing (BT474 (breast cancer), N87 (gastric cancer), HCC1954 (breast cancer), MDA-MB-361-DYT2 (breast cancer)) or non-expressing (MDA-MB-468) cells were seeded in 96-well cell culture plates for 24 hours before treatment. Cells were treated with 3-fold serially diluted antibody-drug conjugates or free compounds (i.e., no antibody conjugated to the drug) in duplicate at 10 concentrations. Cell viability was determined by CellTiter 96® AQueous One Solution Cell Proliferation MTS Assay (Promega, Madison Wis.) 96 hours after treatment. Relative cell viability was determined as percentage of untreated control. IC50 values were calculated using a four parameter logistic model #203 with XLfit v4.2 (IDBS, Guildford, Surry, UK). The potency ranged upward from 0.0002 nm. Similar procedures and techniques were employed.

[2] = test system: MDA-MB-361-DYT2 (breast cancer) cells; test: In vitro cell assay (MTS cell viability), MDA-MB-361-DYT2; assay type: cell-based; details: 96 h, free compounds (natural products and synthetic analogs); cell viability 96 hours after treatment
Protocol: as §1

SMILES | IC50 [1] | IC50 [2]
CC(=O)O[C@@H](C)/C=C\C(=O)N[C@@H]1C[C@H](C)[C@H](C/C=C(C)/C=C/[C@H]2O[C@H](CC(=O)N[C@H]3C[C@@H](O)C3)C[C@@]3(CO3)[C@@H]2O)O[C@@H]1C [#B142, (2S,3Z)-5-{[(2R,3R,5S,6S)-6-{(2E,4E)-5-[(3R,4R,5R,7S)-4-hydroxy-7-{2-[(cis-3-hydroxycyclobutyl)amino]-2-oxoethyl}-1,6-dioxaspiro[2.5]oct-5-yl]-3-methylpenta-2,4-dien-1-yl}-2,5-dimethyltetrahydro-2H-pyran-3-yl]amino}-5-oxopent-3-en-2-yl acetate] | 11.2 nM | 55.5 nM
CNNC(=O)C[C@@H]1C[C@@]2(CO2)[C@H](O)[C@@H](/C=C/C(C)=C/C[C@@H]2O[C@H](C)[C@H](NC(=O)/C=C\[C@H](C)OC(C)=O)C[C@@H]2C)O1 [#B143, (2S,3Z)-5-({(2R,3R,5S,6S)-6-[(2E,4E)-5-{(3R,4R,5R,7S)-4-hydroxy-7-[2-(2-methylhydrazinyl)-2-oxoethyl]-1,6-dioxaspiro[2.5]oct-5-yl}-3-methylpenta-2,4-dien-1-yl]-2,5-dimethyltetrahydro-2H-pyran-3-yl}amino)-5-oxopent-3-en-2-yl acetate] | 2.43 nM | 9.51 nM
CC(=O)O[C@@H](C)/C=C\C(=O)N[C@@H]1C[C@H](C)[C@H](C/C=C(C)/C=C/[C@H]2O[C@H](CC(=O)N(C)N)C[C@@]3(CO3)[C@@H]2O)O[C@@H]1C [#B144, (2S,3Z)-5-({(2R,3R,5S,6S)-6-[(2E,4E)-5-{(3R,4R,5R,7S)-4-hydroxy-7-[2-(1-methylhydrazinyl)-2-oxoethyl]-1,6-dioxaspiro[2.5]oct-5-yl}-3-methylpenta-2,4-dien-1-yl]-2,5-dimethyltetrahydro-2H-pyran-3-yl}amino)-5-oxopent-3-en-2-yl acetate] | 0.982 nM | 6.1 nM
CNN(C)C(=O)C[C@@H]1C[C@@]2(CO2)[C@H](O)[C@@H](/C=C/C(C)=C/C[C@@H]2O[C@H](C)[C@H](NC(=O)/C=C\[C@H](C)OC(C)=O)C[C@@H]2C)O1 [#B145, (2S,3Z)-5-({(2R,3R,5S,6S)-6-[(2E,4E)-5-{(3R,4R,5R,7S)-7-[2-(1,2-dimethylhydrazinyl)-2-oxoethyl]-4-hydroxy-1,6-dioxaspiro[2.5]oct-5-yl}-3-methylpenta-2,4-dien-1-yl]-2,5-dimethyltetrahydro-2H-pyran-3-yl}amino)-5-oxopent-3-en-2-yl acetate] | 0.408 nM | 2.03 nM
COC(=O)C[C@@H]1C[C@@]2(CO2)C[C@@H](/C=C/C(C)=C/C[C@@H]2O[C@H](C)[C@H](NC(=O)/C=C\[C@H](C)OC(=O)CCCSC)C[C@@H]2C)O1 [#B149, (2S,3Z)-5-{[(2R,3R,5S,6S)-6-{(2E,4E)-5-[(3S,5S,7S)-7-(2-methoxy-2-oxoethyl)-1,6-dioxaspiro[2.5]oct-5-yl]-3-methylpenta-2,4-dien-1-yl}-2,5-dimethyltetrahydro-2H-pyran-3-yl]amino}-5-oxopent-3-en-2-yl 4-(methylsulfanyl)butanoate] | > 100 nM | > 100 nM
CC(=O)O[C@@H](C)/C=C\C(=O)N[C@@H]1C[C@H](C)[C@H](C/C=C(C)/C=C/[C@H]2O[C@H](CC(=O)NN(C)C)C[C@@]3(CO3)[C@@H]2O)O[C@@H]1C [#B177, (2S,3Z)-5-({(2R,3R,5S,6S)-6-[(2E,4E)-5-{(3R,4R,5R,7S)-7-[2-(2,2-dimethylhydrazinyl)-2-oxoethyl]-4-hydroxy-1,6-dioxaspiro[2.5]oct-5-yl}-3-methylpenta-2,4-dien-1-yl]-2,5-dimethyltetrahydro-2H-pyran-3-yl}amino)-5-oxopent-3-en-2-yl acetate] | 1.61 nM | 5.65 nM
CC(=O)O[C@@H](C)/C=C\C(=O)N[C@@H]1C[C@H](C)[C@H](C/C=C(C)/C=C/[C@H]2O[C@H](CC(=O)N3CCCCN3)C[C@@]3(CO3)[C@@H]2O)O[C@@H]1C [#B179, (2S,3Z)-5-({(2R,3R,5S,6S)-6-[(2E,4E)-5-{(3R,4R,5R,7S)-4-hydroxy-7-[2-oxo-2-(tetrahydropyridazin-1(2H)-yl)ethyl]-1,6-dioxaspiro[2.5]oct-5-yl}-3-methylpenta-2,4-dien-1-yl]-2,5-dimethyltetrahydro-2H-pyran-3-yl}amino)-5-oxopent-3-en-2-yl acetate] | 0.299 nM | 1.29 nM
CC(/C=C/[C@H]1O[C@H](CC(=O)NN)C[C@@]2(CO2)[C@@H]1O)=C\C[C@@H]1O[C@H](C)[C@H](NC(=O)/C=C\[C@H](C)O)C[C@@H]1C [#B209, (2Z,4S)—N-[(2R,3R,5S,6S)-6-{(2E,4E)-5-[(3R,4R,5R,7S)-7-(2-hydrazinyl-2-oxoethyl)-4-hydroxy-1,6-dioxaspiro[2.5]oct-5-yl]-3-methylpenta-2,4-dien-1-yl}-2,5-dimethyltetrahydro-2H-pyran-3-yl]-4-hydroxypent-2-enamide] | 60.6 nM | > 100 nM
COC(=O)C[C@@H]1C[C@@]2(CO2)[C@H](O)[C@@H](/C=C/C(C)=C/C[C@@H]2O[C@H](C)[C@H](NC(=O)/C=C\[C@H](C)OC)C[C@@H]2C)O1 [#B229, methyl [(3R,5S,7R,8R)-8-hydroxy-7-{(1E,3E)-5-[(2S,3S,5R,6R)-5-{[(2Z,4S)-4-methoxypent-2-enoyl]amino}-3,6-dimethyltetrahydro-2H-pyran-2-yl]-3-methylpenta-1,3-dien-1-yl}-1,6-dioxaspiro[2.5]oct-5-yl]acetate] | 3.6 nM | 9.14 nM
COC(=O)C[C@@H]1C[C@@]2(CO2)[C@H](O)[C@@H](/C=C/C(C)=C/C[C@@H]2O[C@H](C)[C@H](NC(=O)/C=C\[C@H](C)O)C[C@@H]2C)O1 [#B235, methyl [(3R,5S,7R,8R)-8-hydroxy-7-{(1E,3E)-5-[(2S,3S,5R,6R)-5-{[(2Z,4S)-4-hydroxypent-2-enoyl]amino}-3,6-dimethyltetrahydro-2H-pyran-2-yl]-3-methylpenta-1,3-dien-1-yl}-1,6-dioxaspiro[2.5]oct-5-yl]acetate] | 16.4 nM | 36.8 nM
COC(=O)C[C@@H]1C[C@@]2(CO2)[C@H](OC)[C@@H](/C=C/C(C)=C/C[C@@H]2O[C@H](C)[C@H](NC(=O)/C=C\[C@H](C)OC)C[C@@H]2C)O1 [#B240, methyl [(3R,5S,7R,8R)-8-methoxy-7-{(1E,3E)-5-[(2S,3S,5R,6R)-5-{[(2Z,4S)-4-methoxypent-2-enoyl]amino}-3,6-dimethyltetrahydro-2H-pyran-2-yl]-3-methylpenta-1,3-dien-1-yl}-1,6-dioxaspiro[2.5]oct-5-yl]acetate] | 9.79 nM | 5.05 nM
CC(=O)O[C@@H](C)/C=C\C(=O)N[C@@H]1C[C@H](C)[C@H](C/C=C(C)/C=C/[C@H]2O[C@H](CNC(N)=O)C[C@@]3(CO3)[C@@H]2O)O[C@@H]1C [#B241, (2S,3Z)-5-({(2R,3R,5S,6S)-6-[(2E,4E)-5-{(3R,4R,5R,7S)-7-[(carbamoylamino)methyl]-4-hydroxy-1,6-dioxaspiro[2.5]oct-5-yl}-3-methylpenta-2,4-dien-1-yl]-2,5-dimethyltetrahydro-2H-pyran-3-yl}amino)-5-oxopent-3-en-2-yl acetate] | 21.3 nM | 43.6 nM
CCCNC(=O)NC[C@@H]1C[C@@]2(CO2)[C@H](O)[C@@H](/C=C/C(C)=C/C[C@@H]2O[C@H](C)[C@H](NC(=O)/C=C\[C@H](C)OC(C)=O)C[C@@H]2C)O1 [#B242, (2S,3Z)-5-{[(2R,3R,5S,6S)-6-{(2E,4E)-5-[(3R,4R,5R,7S)-4-hydroxy-7-{[(propylcarbamoyl)amino]methyl}-1,6-dioxaspiro[2.5]oct-5-yl]-3-methylpenta-2,4-dien-1-yl}-2,5-dimethyltetrahydro-2H-pyran-3-yl]amino}-5-oxopent-3-en-2-yl acetate] | 0.57 nM | 3.76 nM
COC(=O)C[C@@H]1C[C@@]2(CO2)[C@H](OC)[C@@H](/C=C/C(C)=C/C[C@@H]2O[C@H](C)[C@H](NC(=O)/C=C\[C@H](C)O)C[C@@H]2C)O1 [#B264, methyl [(3R,5S,7R,8R)-7-{(1E,3E)-5-[(2S,3S,5R,6R)-5-{[(2Z,4S)-4-hydroxypent-2-enoyl]amino}-3,6-dimethyltetrahydro-2H-pyran-2-yl]-3-methylpenta-1,3-dien-1-yl}-8-methoxy-1,6-dioxaspiro[2.5]oct-5-yl]acetate] | > 100 nM | > 100 nM
COC(=O)C[C@@H]1C[C@@]2(CO2)[C@H](OC)[C@@H](/C=C/C(C)=C/C[C@@H]2O[C@H](C)[C@H](NC(=O)/C=C\[C@H](C)OC(C)=O)C[C@@H]2C)O1 [#B265, methyl [(3R,5S,7R,8R)-7-{(1E,3E)-5-[(2S,3S,5R,6R)-5-{[(2Z,4S)-4-(acetyloxy)pent-2-enoyl]amino}-3,6-dimethyltetrahydro-2H-pyran-2-yl]-3-methylpenta-1,3-dien-1-yl}-8-methoxy-1,6-dioxaspiro[2.5]oct-5-yl]acetate] | 10.2 nM | 8.67 nM
CC(=O)O[C@@H](C)/C=C\C(=O)N[C@@H]1C[C@H](C)[C@H](C/C=C(C)/C=C/[C@H]2O[C@H](CC(=O)NCc3ccc(C(N)=O)cc3)C[C@@]3(CO3)[C@@H]2O)O[C@@H]1C [#B266, (2S,3Z)-5-{[(2R,3R,5S,6S)-6-{(2E,4E)-5-[(3R,4R,5R,7S)-7-{2-[(4-carbamoylbenzyl)amino]-2-oxoethyl}-4-hydroxy-1,6-dioxaspiro[2.5]oct-5-yl]-3-methylpenta-2,4-dien-1-yl}-2,5-dimethyltetrahydro-2H-pyran-3-yl]amino}-5-oxopent-3-en-2-yl acetate] | 28.4 nM | > 100 nM
